What all share (test): NCI anticancer screen, dose series, 48 h
Assay [1] deals with A549.
In assay [2] the test system is COLO 205.
In assay [3] the test system is EKVX.
Assay [4] deals with HCT-15.
The subject of assay [5] is HL-60.
Assay [6] deals with IGROV-1.
Assay [7] has as its system K562.
In assay [8] the test system is LOX IMVI.
In assay [9] the test system is MOLT-4.
Assay [10] deals with NCI-H23.
The test system of assay [11] is NCI-H460.
The test system of assay [12] is OVCAR-5.
For assay [13], the system named is OVCAR-8.
The test system of assay [14] is RXF 393.
Assay [15] relates to SF-268.
Assay [16] has as its system SN12C.
Assay [17] concerns SNB-19.
Assay [18] deals with U-251.
In assay [19] the test system is UACC-62.
Assay [20] deals with UO-31.

Each structure is given as a SMILES string.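 1) Cells in 96-well plates. 2) Compound, 48 h, 5 concentrations. 3) Linear interpolation between surrounding doses. 4) Unreached endpoint = highest concentration. GI50: concentration for 50% inhibition of growth.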 Calls of active or inactive are those of the source. Cut-off read from the data, not from the text of the source: active = GI50 up to about 1.1 µM and inactive = higher.

For `CCOC(=O)NC(=O)c1cn(CCN(CCO)C(=O)NCCCCCCNC(=O)N(CCO)CCn2cc(C(=O)NC(=O)OCC)c(=O)[nH]c2=O)c(=O)[nH]c1=O`, the GI50 in assay [1] was > 100 µM (inactive); in assay [2], > 100 µM (inactive); in assay [3], > 100 µM (inactive); in [4], over 100 µM; in assay [5], > 100 µM (inactive); in assay [6], > 100 µM (inactive). For the same molecule, the GI50 in [7], in assay [8], in [9], in [10], in assay [11] and in assay [12] was > 100 µM (inactive) in each case. For the same molecule, the GI50 in assay [13], in assay [14], in assay [15], in [16], in assay [17] and in [18] was > 100 µM (inactive) each time. In addition, the GI50 in [19] and in assay [20] was > 100 µM (inactive) each time.

Take `CCCCCCCCCOCC(COP(=O)([O-])OCC[N+](C)(C)C)OC` (stereo not given): the GI50 is > 100 µM (inactive) in assay [1]; > 100 µM (inactive) in assay [2]; > 100 µM (inactive) in assay [3]; over 100 µM in [4]; > 100 µM (inactive) in [5]; > 65.6 µM (inactive) in [6]. The GI50 in [7], in assay [8], in assay [9], in [10], in assay [11] and in [12] was > 100 µM (inactive) in each case. Moreover, the GI50 in assay [13], in assay [14], in assay [15], in assay [16], in [17] and in assay [18] was > 100 µM (inactive) each time. The GI50 in assay [19] and in [20] was > 100 µM (inactive) each time.

As to `CCCCCCCCCCCCCCCC(=O)OC1C(O)C(CO)OC(OC)C1NC(=O)N(CCCl)N=O` (stereo not given), the GI50 was 10.3 µM (inactive) in [1]; 18.7 µM (inactive) in [2]; 20.1 µM (inactive) in assay [3]; 23.7 µM in assay [4]; 17.4 µM (inactive) in assay [6]; 22.3 µM (inactive) in assay [7]. The GI50 in assay [8] was 11.4 µM (inactive); in assay [9], 3.08 µM (inactive); in assay [10], 7.94 µM (inactive); in assay [11], 3.78 µM (inactive); in [12], 16.5 µM (inactive); in [13], 17.8 µM (inactive). Besides, the GI50 was 2.64 µM (inactive) in assay [15]; 10.4 µM (inactive) in assay [17]; 5.22 µM (inactive) in [18]; 2 µM (inactive) in [19]; 15.2 µM (inactive) in assay [20].

Consider `NS(=O)(=O)C1CCCCC1C(=O)NNC(=O)C(=O)Nc1nnc(S)[nH]1` (stereo not given), for which the GI50 in assay [1] is > 100 µM (inactive); in assay [2], > 100 µM (inactive); in assay [3], > 100 µM (inactive); in [4], over 100 µM; in assay [5], > 100 µM (inactive); in assay [6], > 100 µM (inactive). Also, the GI50 in [7], in [8], in assay [9], in [10], in assay [11] and in assay [12] was > 100 µM (inactive) in each case. The GI50 in [13], in assay [14], in assay [15], in assay [16], in [17] and in assay [18] was > 100 µM (inactive) throughout. The GI50 in assay [19] and in assay [20] was > 100 µM (inactive) in each case.

For the molecule `O=[PH](O)c1cccs1`, the GI50 is > 100 µM (inactive) in assay [1]; > 100 µM (inactive) in assay [2]; > 100 µM (inactive) in [3]; over 100 µM in [4]; > 100 µM (inactive) in assay [5]; > 100 µM (inactive) in [6]. Further, the GI50 in assay [7], in [8], in assay [9], in assay [10], in assay [11] and in assay [13] was > 100 µM (inactive) throughout. The GI50 in assay [14], in assay [15], in [16], in [17], in assay [18] and in assay [19] was > 100 µM (inactive) in each case. Besides, the GI50 in [20] was > 100 µM (inactive).

As for `COc1ccc(N2CN(C)CSC2=S)cc1`, the GI50 in assay [1] is > 100 µM (inactive); in assay [2] it was > 100 µM (inactive); in assay [3], > 100 µM (inactive); in assay [4], 76 µM; in assay [5], 72.8 µM (inactive); in [6] it was 77.6 µM (inactive). For the same molecule, the GI50 in assay [7] is 21.1 µM (inactive); in [8] it was 86.7 µM (inactive); in assay [9] it was 76.7 µM (inactive); in assay [10], > 100 µM (inactive); in assay [11] it was 76 µM (inactive); in [12], 71.9 µM (inactive). Also, the GI50 in [13] was > 100 µM (inactive); in [14], > 100 µM (inactive); in [15], 97.9 µM (inactive); in assay [16], > 100 µM (inactive); in assay [17] it was > 100 µM (inactive); in assay [18], > 100 µM (inactive). The GI50 in assay [19] and in [20] was > 100 µM (inactive) each time.

In the case of `CO/N=C1/c2sccc2[C@H](NC(=O)C(F)(F)F)[C@@H]1O`, the GI50 in assay [1] is > 100 µM (inactive); in assay [2] it was > 100 µM (inactive); in assay [3], > 100 µM (inactive); in [4] it was over 100 µM; in assay [5], > 100 µM (inactive); in [6] it was > 100 µM (inactive). In addition, the GI50 in [7], in assay [8], in [9], in assay [10], in assay [11] and in assay [12] was > 100 µM (inactive) in each case. Also, the GI50 in [13], in assay [14], in assay [15], in assay [16], in assay [18] and in [19] was > 100 µM (inactive) throughout. The GI50 in assay [20] was > 100 µM (inactive).

With `Cc1ccc2c(=O)c3ccccc3sc2c1`, the GI50 in [1] is > 100 µM (inactive); in [2], > 100 µM (inactive); in assay [3], 55.2 µM (inactive); in [5], 26.9 µM (inactive); in assay [6], > 100 µM (inactive); in [7], > 100 µM (inactive). Also, the GI50 in assay [8] was > 100 µM (inactive); in assay [9] it was 72.8 µM (inactive); in assay [10] it was > 100 µM (inactive); in assay [11] it was > 100 µM (inactive); in assay [12], > 100 µM (inactive); in [13], > 100 µM (inactive). The GI50 in [14] was > 100 µM (inactive); in assay [15], > 100 µM (inactive); in assay [16], > 100 µM (inactive); in assay [17] it was 66.4 µM (inactive); in assay [18] it was > 100 µM (inactive); in [19] it was > 100 µM (inactive). The GI50 in [20] is > 100 µM (inactive).

Turning to `O=C(N/N=C\c1cccc2ccccc12)Nc1ccccc1`, the GI50 in [2] is > 100 µM (inactive); in assay [4], over 100 µM; in assay [5], > 10 µM (inactive); in [6], > 100 µM (inactive); in assay [7], > 100 µM (inactive); in assay [8], > 100 µM (inactive). Further, the GI50 in [9], in [10], in assay [11], in assay [12], in assay [13] and in assay [14] was > 100 µM (inactive) each time. In addition, the GI50 in assay [16], in assay [17], in [18], in [19] and in [20] was > 100 µM (inactive) in each case.

With `O=C1CCC(c2ccc(Cl)cc2)=NN1c1nsc2ccccc12`, the GI50 in [1] was 37.9 µM (inactive); in assay [2], 36.5 µM (inactive); in assay [3] it was 23.3 µM (inactive); in assay [4], over 10 µM; in assay [5] it was 20 µM (inactive); in [6] it was 39.4 µM (inactive). The GI50 in [7] was 22.2 µM (inactive); in [8], > 10 µM (inactive); in assay [9] it was 19.7 µM (inactive); in assay [10], 26.7 µM (inactive); in [11] it was 29.6 µM (inactive); in assay [12] it was 51.2 µM (inactive). In addition, the GI50 is 31.8 µM (inactive) in [13]; 11.5 µM (inactive) in assay [14]; 38.9 µM (inactive) in assay [15]; 25.6 µM (inactive) in assay [16]; 34.4 µM (inactive) in assay [17]; 34.1 µM (inactive) in [18]. The values for the GI50 in assay [19] and in [20] were 43.1 µM (inactive) and 18 µM (inactive), respectively.

`CC(=O)CC(=O)CCC(=O)O` [SUCCINYLACETONE]: the GI50 in assay [1] was > 100 µM (inactive); in assay [2] it was > 100 µM (inactive); in assay [3], > 100 µM (inactive); in assay [4], over 100 µM; in assay [5], > 100 µM (inactive); in [6], > 100 µM (inactive). For the same molecule, the GI50 in assay [7] is > 100 µM (inactive); in assay [8], > 100 µM (inactive); in assay [9], 57.3 µM (inactive); in assay [10], > 100 µM (inactive); in [11], > 100 µM (inactive); in [12], > 100 µM (inactive). For the same molecule, the GI50 in assay [13], in assay [14], in assay [15], in [16], in [17] and in assay [18] was > 100 µM (inactive) in each case. The GI50 in [20] was > 100 µM (inactive).

For the origin of these results see ChEMBL document CHEMBL1201862, “PubChem BioAssay data set” (2004).
